Assay results reported in ChEMBL document CHEMBL5120927, “LEGO-Lipophosphonoxins: A Novel Approach in Designing Membrane Targeting Antimicrobials” (J Med Chem, 2022).

Legend:
Enterococcus faecalis = experiment: Antibacterial activity against Enterococcus faecalis ATCC 29212 = CCM 4224 assessed as inhibition of bacterial growth incubated for 24 hrs by microdilution assay; assay type: functional
Staphylococcus aureus [1] = experiment: Antibacterial activity against Staphylococcus aureus ATCC 29213 = CCM 4223 assessed as inhibition of bacterial growth incubated for 24 hrs by microdilution assay; assay type: functional
Escherichia coli [2] = experiment: Antibacterial activity against Escherichia coli ATCC 25922 = CCM 3954 assessed as inhibition of bacterial growth incubated for 24 hrs by microdilution assay; assay type: functional
Pseudomonas aeruginosa = experiment: Antibacterial activity against Pseudomonas aeruginosa ATCC 27853 = CCM 3955 assessed as inhibition of bacterial growth incubated for 24 hrs by microdilution assay; assay type: functional
[3] = Hemolytic activity in human RBC assessed as haemoglobin release measured after 3 hr; assay type: toxicity, cell-based, Erythrocyte; conditions: red blood cells (erythrocytes)
Staphylococcus aureus [4] = experiment: Antibacterial activity against Staphylococcus aureus ATCC 29213 = CCM 4223 assessed as inhibition of bacterial growth incubated for 24 hrs in presence of BSA by microdilution assay; assay type: functional
Escherichia coli [5] = experiment: Antibacterial activity against Escherichia coli ATCC 25922 = CCM 3954 assessed as inhibition of bacterial growth incubated for 24 hrs in presence of BSA by microdilution assay; assay type: functional
[6] = Gradient chromatographic hydrophobicity index of the compound at pH 3.7 by HPLC analysis; assay type: ADME
[7] = tested on: Staphylococcus epidermidis; experiment: Antibacterial activity against Staphylococcus epidermidis CCM 7221 assessed as inhibition of bacterial growth incubated for 24 hrs by microdilution assay; assay type: functional
Staphylococcus aureus [8] = experiment: Antibacterial activity against methicillin resistant Staphylococcus aureus 4591/A assessed as reduction in microbial growth incubated for 24 hrs by microdilution assay; assay type: functional
Escherichia coli [9] = experiment: Antibacterial activity against multidrug-resistant Escherichia coli CE5556 expressing CTX-M-15 assessed as reduction in microbial growth incubated for 24 hrs by microdilution assay; assay type: functional
Enterococcus faecium = experiment: Antibacterial activity against vancomycin resistant Enterococcus faecium 419/ANA assessed as reduction in microbial growth incubated for 24 hrs by microdilution assay; assay type: functional

Compound | MIC (Enterococcus faecalis) [µg/mL] | MIC (Staphylococcus aureus [1]) [µg/mL] | MIC (Escherichia coli [2]) [µg/mL] | MIC (Pseudomonas aeruginosa) [µg/mL] | HC50 at 3 h [3] [µg/mL] | MIC (Staphylococcus aureus [4]) [µg/mL] | MIC (Escherichia coli [5]) [µg/mL] | CHI [6] | MIC [7] [µg/mL] | MIC (Staphylococcus aureus [8]) [µg/mL] | MIC (Escherichia coli [9]) [µg/mL] | MIC (Enterococcus faecium) [µg/mL]
CCCCCCCCCCCCOP(=O)(CCN(CCCN)CCCN)OCCc1c[nH]c2ccccc12.Cl.Cl.Cl.Cl (stereo not drawn) | 4 | 2 | 4 | 8 | 12.1 | – | – | – | – | – | – | –
CCCCCCCCOP(=O)(CCN(CCCN)CCCN)OCCOCc1ccccc1.Cl.Cl.Cl (stereo not drawn) | 128 | 128 | > 128 | > 128 | > 100 | > 128 | > 132 | – | – | – | – | –
CCCCCCCCCOP(=O)(CCN(CCCN)CCCN)OCCc1ccc(N)cc1.Cl.Cl.Cl.Cl (stereo not drawn) | 128 | 64 | 128 | 128 | > 100 | > 128 | > 128 | – | – | – | – | –
CCCCCCCCCOP(=O)(CCN(CCCN)CCCN)OCCc1cccc2ccccc12.Cl.Cl.Cl (stereo not drawn) | 2 | 2 | 4 | 4 | 12.8 | 64 | 64 | – | – | – | – | –
CCCCCCCCCCCCCCCCOP(=O)(CCN(CCCN)CCCN)OCC.Cl.Cl.Cl (stereo not drawn) | 2 | 2 | 2 | 4 | 9.4 | 128 | > 130 | – | – | – | – | –
CCCCCCCCCOP(=O)(CCN(CCCN)CCCN)OCCc1ccccc1.Cl.Cl.Cl (stereo not drawn) | 32 | 16 | 32 | 16 | 58.7 | – | – | – | – | – | – | –
CC(C)COP(=O)(CCN(CCCN)CCCN)OCCCCCCCCCCCCCCOP(=O)(CCN(CCCN)CCCN)OCC(C)C.Cl.Cl.Cl.Cl.Cl.Cl (stereo not drawn) | 4 | – | 16 | 4 | – | – | – | 27.3 | 0.5 | 4 | 16 | 16
CCCCCCCCOP(=O)(CCN(CCCN)CCCN)OCCCCCCCCCCCCOP(=O)(CCN(CCCN)CCCN)OCCCCCCCC.Cl.Cl.Cl.Cl.Cl.Cl (stereo not drawn) | 1 | – | 1 | 2 | – | – | – | 432 | 0.5 | 1 | 1 | 1
CCCCCCOP(=O)(CCN(CCCN)CCCN)OCCCCCCCCCCCCOP(=O)(CCN(CCCN)CCCN)OCCCCCC.Cl.Cl.Cl.Cl.Cl.Cl (stereo not drawn) | 0.5 | – | 1 | 2 | – | – | – | 37.7 | 0.125 | 0.5 | 2 | 2
CCCCCOP(=O)(CCN(CCCN)CCCN)OCCCCCCCCCCCCCCOP(=O)(CCN(CCCN)CCCN)OCCCCC.Cl.Cl.Cl.Cl.Cl.Cl (stereo not drawn) | 1 | – | 2 | 4 | – | – | – | 38.1 | 0.5 | 1 | 2 | 2
CCCCOP(=O)(CCN(CCCN)CCCN)OCCCCCCCCCCCCCCOP(=O)(CCN(CCCN)CCCN)OCCCC.Cl.Cl.Cl.Cl.Cl.Cl (stereo not drawn) | 4 | – | 16 | 4 | – | – | – | 35.2 | 0.5 | 2 | 32 | 16
CCCCCCCCCCCCCCOP(=O)(CCN(CCCN)CCCN)OCCc1c[nH]c2ccccc12.Cl.Cl.Cl.Cl (stereo not drawn) | 4 | 2 | 2 | 2 | 12.4 | – | – | – | – | – | – | –
CCCCCCCCCOP(=O)(CCN(CCCN)CCCN)OCCc1ccc([N+](=O)[O-])cc1.Cl.Cl.Cl (stereo not drawn) | 16 | 8 | 16 | 8 | 50 | 64 | 128 | – | – | – | – | –
CCCCCCOP(=O)(CCN(CCCN)CCCN)OCCCCCCCCCCCCCCOP(=O)(CCN(CCCN)CCCN)OCCCCCC.Cl.Cl.Cl.Cl.Cl.Cl (stereo not drawn) | 1 | – | 1 | 2 | – | – | – | 40.6 | 0.5 | 1 | 1 | 2
